{
  "source": "ChEMBL document CHEMBL5331069",
  "about": "“Potential of glycyrrhizic and glycyrrhetinic acids against influenza type A and B viruses: A perspective to develop new anti-influenza compounds and drug delivery systems” (Eur J Med Chem, 2023)",
  "key": {"[1]": {"system": "Influenza A virus", "assay": "Antiviral activity against influenza A virus A/WSN/33(H1N1) infected in BALB/c mouse assessed as log reduction in viral load in lungs at 5 mg/kg administered intranasally for 5 days", "assay_type": "functional", "conditions": "route nas, time 5 day"}, "[2]": {"system": "Influenza A virus", "assay": "Antiviral activity against Influenza A virus A/Aichi/2/68(H3N2) infected in MDCK cells assessed as inhibition of virus-induced cytopathicity", "assay_type": "functional, organism-based"}, "[3]": {"assay": "Cytotoxicity against MDCK cells assessed as reduction in cell viability incubated for 48 hrs", "assay_type": "toxicity, cell-based, Canis lupus familiaris", "conditions": "dog"}, "[4]": {"system": "Influenza A virus", "assay": "Antiviral activity against influenza A virus A/NIBRG/14/H5N1 infected in MDCK cells assessed as reduction in viral titer by agglutination assay", "assay_type": "functional, organism-based", "conditions": "A/NIBRG/14/H5N1, MDCK"}, "[5]": {"assay": "Cytotoxicity against MDCK cells assessed as reduction in cell viability incubated for 72 hrs by MTT assay", "assay_type": "toxicity, cell-based, Canis lupus familiaris", "conditions": "dog"}, "[6]": {"system": "Influenza B virus", "assay": "Antiviral activity against influenza B virus B/Brisben/60/08 infected in MDCK cells assessed as reduction in viral titer by agglutination assay", "assay_type": "functional, organism-based", "conditions": "B/Brisben/60/08, MDCK"}, "[7]": {"system": "Influenza A virus", "assay": "Antiviral activity against influenza A virus A/California/07/09(H1N1)pdm09 infected in MDCK cells assessed as reduction in viral titer by agglutination assay", "assay_type": "functional, organism-based", "conditions": "A/California/07/09(H1N1)pdm09, MDCK"}, "[8]": {"system": "Influenza A virus", "assay": "Antiviral activity against influenza A virus A/Pert/16/09(H3N2) infected in MDCK cells assessed as reduction in viral titer by agglutination assay", "assay_type": "functional, organism-based"}, "[9]": {"assay": "Cytotoxicity against MDCK cells assessed as reduction in cell viability incubated for 48 hrs by MTT assay", "assay_type": "toxicity, cell-based, Canis lupus familiaris", "conditions": "dog"}, "[10]": {"system": "Influenza A virus", "assay": "Antiviral activity against influenza A virus H1N1/pdm09 infected in MDCK cells assessed as reduction in viral titer preincubated with compound for 1 hr followed by virus infection incubated for 48 hrs followed by addition of chicken erythrocytes measured after 40 mins by hemagglutination assay", "assay_type": "functional, organism-based"}, "[11]": {"assay": "Cytotoxicity against MDCK cells assessed as reduction in cell viability incubated for 48 hrs by CellTiter-Glo assay", "assay_type": "toxicity, cell-based, Canis lupus familiaris", "conditions": "dog"}, "[12]": {"system": "Influenza A virus", "assay": "Antiviral activity against Influenza A virus A/WSN/33(H1N1) infected in MDCK cells assessed as inhibition of virus-induced cytopathic effect incubated for 48 hrs by CellTiter-Glo assay", "assay_type": "functional, organism-based"}, "[13]": {"assay": "Water solubility of the compound by shake flask method", "assay_type": "physicochemical", "conditions": "buffer"}, "[14]": {"assay": "Oral bioavailability in rat", "assay_type": "ADME, organism-based", "conditions": "in vivo"}, "[15]": {"assay": "Water solubility of the compound", "assay_type": "physicochemical"}},
  "data": [
    {"smiles": "COC(=O)[C@@]1(C)CC[C@]2(C)CC[C@]3(C)[C@H](C(=O)C=C4[C@@]5(C)C=C(C#N)C(=O)C(C)(C)[C@@H]5CC[C@]43C)[C@@H]2C1", "values": [
      {"measurement": "log(activity)", "setting": "[1]", "result": 2.3}
    ]},
    {"smiles": "CC1(C)[C@@H](SCCS[C@@H]2O[C@H](C(=O)O)[C@@H](O)[C@H](O)[C@H]2O)CC[C@]2(C)[C@H]3C(=O)C=C4[C@@H]5C[C@@](C)(C(=O)O)CC[C@]5(C)CC[C@@]4(C)[C@]3(C)CC[C@@H]12", "values": [
      {"measurement": "IC50", "setting": "[2]", "result": 54, "unit": "µg/mL"},
      {"measurement": "CC50 at 48 h", "setting": "[3]", "result": "> 250", "unit": "µg/mL"}
    ]},
    {"smiles": "COC(=O)[C@H]1O[C@@H](SCCN(C(C)=O)[C@H]2CC[C@]3(C)[C@H]4C(=O)C=C5[C@@H]6C[C@@](C)(C(=O)O)CC[C@]6(C)CC[C@@]5(C)[C@]4(C)CC[C@H]3C2(C)C)[C@H](O)[C@@H](O)[C@@H]1O", "values": [
      {"measurement": "IC50", "setting": "[2]", "result": 72.1, "unit": "µg/mL"},
      {"measurement": "CC50 at 48 h", "setting": "[3]", "result": "> 75", "unit": "µg/mL"}
    ]},
    {"smiles": "CCOC(=O)C(Cc1c[nH]c2ccccc12)NC(=O)[C@H]1O[C@@H](O[C@H]2[C@H](O[C@H]3CC[C@]4(C)[C@H]5C(=O)C=C6[C@@H]7C[C@@](C)(C(=O)NC(Cc8c[nH]c9ccccc89)C(=O)OCC)CC[C@]7(C)CC[C@@]6(C)[C@]5(C)CC[C@H]4C3(C)C)O[C@H](C(=O)NC(Cc3c[nH]c4ccccc34)C(=O)OCC)[C@@H](O)[C@@H]2O)[C@H](O)[C@@H](O)[C@@H]1O", "note": "(stereo partly drawn)", "values": [
      {"measurement": "EC50", "setting": "[4]", "result": 17.5, "unit": "µg/mL"},
      {"measurement": "CC50 at 72 h", "setting": "[5]", "result": "> 500", "unit": "µg/mL"},
      {"measurement": "EC50", "setting": "[6]", "result": 50, "unit": "µg/mL"},
      {"measurement": "EC50", "setting": "[7]", "result": 44.5, "unit": "µg/mL"},
      {"measurement": "EC50", "setting": "[8]", "result": 33, "unit": "µg/mL"}
    ]},
    {"smiles": "COC(=O)C(Cc1c[nH]c2ccccc12)NC(=O)[C@H]1O[C@@H](O[C@H]2[C@H](O[C@H]3CC[C@]4(C)[C@H]5C(=O)C=C6[C@@H]7C[C@@](C)(C(=O)NC(Cc8c[nH]c9ccccc89)C(=O)OC)CC[C@]7(C)CC[C@@]6(C)[C@]5(C)CC[C@H]4C3(C)C)O[C@H](C(=O)NC(Cc3c[nH]c4ccccc34)C(=O)OC)[C@@H](O)[C@@H]2O)[C@H](O)[C@@H](O)[C@@H]1O", "note": "(stereo partly drawn)", "values": [
      {"measurement": "CC50 at 72 h", "setting": "[5]", "result": 620, "unit": "µg/mL"},
      {"measurement": "EC50", "setting": "[7]", "result": 20.7, "unit": "µg/mL"},
      {"measurement": "EC50", "setting": "[8]", "result": 74.4, "unit": "µg/mL"}
    ]},
    {"smiles": "COC(=O)CCCCCNC(=O)[C@H]1O[C@@H](O[C@H]2[C@H](O[C@H]3CC[C@]4(C)[C@H]5C(=O)C=C6[C@@H]7C[C@@](C)(C(=O)O)CC[C@]7(C)CC[C@@]6(C)[C@]5(C)CC[C@H]4C3(C)C)O[C@H](C(=O)NCCCCCC(=O)OC)[C@@H](O)[C@@H]2O)[C@H](O)[C@@H](O)[C@@H]1O", "values": [
      {"measurement": "CC50 at 48 h", "setting": "[9]", "result": 408, "unit": "µg/mL"},
      {"measurement": "EC50", "setting": "[10]", "result": 12.7, "unit": "µg/mL"}
    ]},
    {"smiles": "CC(=O)N(CCS[C@@H]1O[C@H](C(=O)O)[C@@H](O)[C@H](O)[C@H]1O)[C@H]1CC[C@]2(C)[C@H]3C(=O)C=C4[C@@H]5C[C@@](C)(C(=O)O)CC[C@]5(C)CC[C@@]4(C)[C@]3(C)CC[C@H]2C1(C)C", "values": [
      {"measurement": "IC50", "setting": "[2]", "result": 87, "unit": "µg/mL"},
      {"measurement": "CC50 at 48 h", "setting": "[3]", "result": "> 250", "unit": "µg/mL"}
    ]},
    {"smiles": "CC(=O)O[C@@H]1[C@@H](OC(C)=O)[C@H]2O[C@H]3[C@H](OC(C)=O)[C@@H](OC(C)=O)[C@@H](O[C@H]4[C@H](OC(C)=O)[C@@H](OC(C)=O)[C@@H](O[C@H]5[C@H](OC(C)=O)[C@@H](OC(C)=O)[C@@H](O[C@H]6[C@H](OC(C)=O)[C@@H](OC(C)=O)[C@@H](O[C@H]7[C@H](OC(C)=O)[C@@H](OC(C)=O)[C@@H](O[C@H]8[C@H](OC(C)=O)[C@@H](OC(C)=O)[C@@H](O[C@@H]1[C@@H](Cn1cc(CN9CCN(CCNC(=O)[C@@]%10(C)CC[C@]%11(C)CC[C@]%12(C)C(=CC(=O)[C@@H]%13[C@@]%14(C)CC[C@H](O)C(C)(C)[C@@H]%14CC[C@]%13%12C)[C@@H]%11C%10)CC9)nn1)O2)O[C@@H]8Cn1cc(CN2CCN(CCNC(=O)[C@@]8(C)CC[C@]9(C)CC[C@]%10(C)C(=CC(=O)[C@@H]%11[C@@]%12(C)CC[C@H](O)C(C)(C)[C@@H]%12CC[C@]%11%10C)[C@@H]9C8)CC2)nn1)O[C@@H]7Cn1cc(CN2CCN(CCNC(=O)[C@@]7(C)CC[C@]8(C)CC[C@]9(C)C(=CC(=O)[C@@H]%10[C@@]%11(C)CC[C@H](O)C(C)(C)[C@@H]%11CC[C@]%109C)[C@@H]8C7)CC2)nn1)O[C@@H]6Cn1cc(CN2CCN(CCNC(=O)[C@@]6(C)CC[C@]7(C)CC[C@]8(C)C(=CC(=O)[C@@H]9[C@@]%10(C)CC[C@H](O)C(C)(C)[C@@H]%10CC[C@]98C)[C@@H]7C6)CC2)nn1)O[C@@H]5Cn1cc(CN2CCN(CCNC(=O)[C@@]5(C)CC[C@]6(C)CC[C@]7(C)C(=CC(=O)[C@@H]8[C@@]9(C)CC[C@H](O)C(C)(C)[C@@H]9CC[C@]87C)[C@@H]6C5)CC2)nn1)O[C@@H]4Cn1cc(CN2CCN(CCNC(=O)[C@@]4(C)CC[C@]5(C)CC[C@]6(C)C(=CC(=O)[C@@H]7[C@@]8(C)CC[C@H](O)C(C)(C)[C@@H]8CC[C@]76C)[C@@H]5C4)CC2)nn1)O[C@@H]3Cn1cc(CN2CCN(CCNC(=O)[C@@]3(C)CC[C@]4(C)CC[C@]5(C)C(=CC(=O)[C@@H]6[C@@]7(C)CC[C@H](O)C(C)(C)[C@@H]7CC[C@]65C)[C@@H]4C3)CC2)nn1", "values": [
      {"measurement": "CC50 at 48 h", "setting": "[11]", "result": "> 100000", "unit": "nM"},
      {"measurement": "IC50", "setting": "[12]", "result": 2860, "unit": "nM"}
    ]},
    {"smiles": "O=c1cc(-c2ccccc2)oc2cc(O)c(O)c(O)c12", "note": "[BAICALEIN]", "values": [
      {"measurement": "solubility", "setting": "[13]", "result": 0.15, "unit": "µg/mL"},
      {"measurement": "bioavailability", "setting": "[14]", "result": 2.2, "unit": "%"}
    ]},
    {"smiles": "CC1(C)[C@@H](O)CC[C@]2(C)[C@H]3C(=O)C=C4[C@@H]5C[C@@](C)(C(=O)O)CC[C@]5(C)CC[C@@]4(C)[C@]3(C)CC[C@@H]12", "note": "[ENOXOLONE]", "values": [
      {"measurement": "solubility", "setting": "[15]", "result": "< 10", "unit": "µg/mL"},
      {"measurement": "CC50 at 48 h", "setting": "[3]", "result": 7.4, "unit": "µg/mL"}
    ]}
  ]
}
